US10258701B2, “Labeled evans blue dye derivative for in vivo serum albumin labeling” (The United States of America, as represented by the …, priority 2015, dated 2019)
Read-outs that look alike come from different tables or passages of the source.

Columns and labels:
UM-22B tumors = test system: UM-22B tumors; parameters: species or system mice; settings: female, athymic nude, mouse, in vivo
Description: All animal studies were conducted in accordance with the principles and procedures outlined in the Guide for the Care and Use of Laboratory Animals and were approved by the Institutional Animal Care and Use Committee of the Clinical Center, NIH. The UM-22B human head and neck carcinoma cancer cell line was grown in DMEM medium supplemented with 10% fetal bovine serum (FBS), 100 IU/mL penicillin, and 100 μg/mL streptomycin (Invitrogen), and in a humidified atmosphere containing 5% CO2 at 37° C. The tumor model was developed in 5 to 6 week old female athymic nude mice (Harlan Laboratories) by injection of 5×10^6 cells into their right shoulders. The mice underwent small-animal PET studies when the tumor volume reached 100-300 mm^3 (2-3 weeks after inoculation).
PET scans and image analysis were performed using an Inveon small animal PET scanner (Siemens Medical Solutions). About 3.7 MBq of ^18F-AlF-NEB or ^18F-FB-Albumin or 7.4 MBq of ^64Cu-NEB was administered via tail vein injection under isoflurane anesthesia. For normal mice, 60-min dynamic PET scans were acquired. For tumor mice, 60-min dynamic PET scans were acquired, followed by a series of late time point scans at 2, 4, and 24 h (^64Cu only) after tracer injection. With acute inflammation model, 5-min static PET images were acquired at 30 min, 1 h and 2 h postinjection (n=3-5 per group). The images were reconstructed using a two-dimensional ordered-subset expectation maximum (2D OSEM) algorithm, and no correction was applied for attenuation or scatter. For each scan, regions of interest (ROIs) were drawn using vendor software (ASI Pro 5.2.4.0) on decay-corrected whole-body coronal images. The radioactivity concentrations (accumulation) within the heart, muscle, liver, and kidneys were obtained from mean pixel values within the multiple ROI volume and then converted to MBq per milliliter. These values were then divided by the administered activity to obtain (assuming a tissue density of 1 g/ml) an image-ROI-derived percent injected dose per gram (% ID/g).
Malignant tumors are characterized by torturous blood vessels and high vascular permeability. Besides, the anti-angiogenesis and “normalization” of tumor vasculature have been intensively investigated. Unlike radiolabeled RBCs, albumin can be used to study vascular permeability in tumors. NEB was labeled with ^64Cu, a positron emitter with longer half-life (t1/1=12.6 h) than ^18F (t1/2=109.8 min). A UM-22B xenograft model was developed and performed 60-min dynamic scan and then static scans at late time points up to 24 h. The in vivo distribution of ^64Cu-NEB was very similar to that of ^18F-AlF-NEB with most of radioactivity retained in the circulation system (FIG. 4A). Even at 4 h after tracer injection, radioactivity within heart region and major vessels was still dominant. […] At 24 h after tracer injection, the tumor uptake was still at a relatively high level (8.07±1.01% ID/g). The tracer uptake over the heart region was 16.09±0.51% ID/g at 1 h p.i., which dropped to 8.58±0.81% ID/g at 24 h (FIG. 5B).

[1] = human, in vivo
Description: A dosimetry study was also performed based on the PET imaging data.

lymph nodes = experiment: Amount of EB dye in lymph nodes after local co-injection of 18F-AlF-NEB and EB; settings: ex vivo
Description: Ninety min after local injection, both popliteal LN sites could be distinguished clearly by the apparent blue color, indicating the local accumulation of the dye molecules. The left sciatic LNs could also be seen but with much lower uptake of dye (FIGS. 19A and 19B). There was significant difference in weight between the popliteal LNs on the tumor side and the contralateral side but not between the sciatic LNs (popliteal LNs: 3.582±0.762 vs. 1.995±0.759 mg, p<0.05; sciatic LNs: 1.558±0.731 vs. 1.403±0.632 mg, p>0.05) (FIG. 20). […] However, there was no difference in the amount of EB between two sciatic LNs (0.030±0.008 μg vs. 0.028±0.015 μg, p>0.05). These ex vivo results were consistent with in vivo PET data.

albumin = albumin (Homo sapiens, UniProt P02768); experiment: Absorbance and fluorescence emission of Evans blue with and without albumin; format: physicochemical
Sequence of albumin (P02768 25-609, species assumed): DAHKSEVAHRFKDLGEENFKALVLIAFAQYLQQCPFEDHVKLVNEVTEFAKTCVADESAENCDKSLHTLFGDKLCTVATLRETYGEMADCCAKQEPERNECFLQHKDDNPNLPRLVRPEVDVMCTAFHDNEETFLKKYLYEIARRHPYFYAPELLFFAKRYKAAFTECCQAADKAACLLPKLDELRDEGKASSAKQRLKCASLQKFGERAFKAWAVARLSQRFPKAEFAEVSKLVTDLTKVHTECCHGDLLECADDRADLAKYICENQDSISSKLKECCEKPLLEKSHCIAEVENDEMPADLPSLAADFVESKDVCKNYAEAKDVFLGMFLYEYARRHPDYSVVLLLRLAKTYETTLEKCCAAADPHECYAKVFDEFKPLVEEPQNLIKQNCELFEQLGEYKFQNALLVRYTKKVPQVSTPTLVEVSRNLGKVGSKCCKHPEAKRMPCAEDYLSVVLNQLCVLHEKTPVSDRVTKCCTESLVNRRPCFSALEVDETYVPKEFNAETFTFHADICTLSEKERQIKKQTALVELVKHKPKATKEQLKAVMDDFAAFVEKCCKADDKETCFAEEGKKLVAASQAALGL
Excerpt: FIGS. 1A and 1B show the absorbance and fluorescence emission of Evans blue with and without albumin. […] Evans blue is almost not fluorescent without albumin.
After forming a complex with serum albumin, both NEB and EB became fluorescent. Since only trace amount of NEB was mixed with EB, the majority of the fluorescence came from EB. […] With optical imaging, the migration of the injected EB/NEB in lymphatics could be clearly observed after local injection. The fluorescence signal first reached the popliteal LN then migrated to the sciatic LN (FIG. 22). Ninety min after tracer injection, both LNs were clearly visualized by fluorescence optical imaging. Under bright light, apparent blue dye accumulation could also be seen by the naked eye (FIGS. 23A and 23B). PET and optical imaging were also performed with the same animal after injection of ^18F-AlF-NEB/EB. An overlay of the two images provided high positional correlation of the LNs (FIGS. 24A and 24B).

platelet aggregation = settings: cited from earlier work
[2] = ninety min after local injection

| SMILES | tracer uptake over the heart region (UM-22B tumors; 1 h) | tumor uptake (UM-22B tumors; 1 h) | tumor uptake (UM-22B tumors; 2 h) | tracer uptake over the heart region (UM-22B tumors; 24 h) | tumor uptake (UM-22B tumors; 24 h) | absorbed dose, red bone marrow [1] | amount of EB in sciatic LNs, first value of the pair (lymph nodes; presumably left side) | amount of EB in sciatic LNs, second value of the pair (lymph nodes; presumably right side) | amount of EB dye in left popliteal LNs (lymph nodes; [2]) | amount of EB dye in right popliteal LNs (lymph nodes; [2]) | fluorescence emission peak (albumin; only with albumin) | absorbance peak (albumin; with or without albumin) | threshold concentration for induction of platelet aggregation (platelet aggregation) |
| --- | --- | --- | --- | --- | --- | --- | --- | --- | --- | --- | --- | --- | --- |
| Cc1cc(-c2ccc(NC(=O)CN3CCN4CCN(CC3)CC(=O)[O][64Cu][O]C(=O)C4)c(C)c2)ccc1N=Nc1ccc2c(S(=O)(=O)O)cc(S(=O)(=O)O)c(N)c2c1O [^64Cu-NEB] | 16.09±0.51 % ID/g | 5.73±1.11 % ID/g | 8.03±0.77 % ID/g | 8.58±0.81 % ID/g | 8.07±1.01 % ID/g | 6.14 mSv | – | – | – | – | – | – | – |
| Cc1cc(-c2ccc(/N=N/c3ccc4c(S(=O)(=O)O)cc(S(=O)(=O)O)c(N)c4c3O)c(C)c2)ccc1/N=N/c1ccc2c(S(=O)(=O)O)cc(S(=O)(=O)O)c(N)c2c1O [EB, Evans blue] | – | – | – | – | – | – | 0.030 ± 0.008 µg | 0.028 ± 0.015 µg | 0.144 ± 0.034 µg | 0.091 ± 0.029 µg | 680 nm | 620 nm | about 100 μM |
